Patent US8374794B1, “Protein synthesis modulators” (Rib-X Pharmaceuticals, Inc., priority 2003, dated 2013)

Biological target: T1, H. marismortui large ribosomal subunit (Haloarcula marismortui, UniProt P32411)
T1 construct: Ribosomes were purified and crystallized as described previously; endogenous in cells; host or cells: Haloarcula marismortui (ribosomes purified from the organism)
Test: X-ray diffraction of large ribosomal subunit crystals soaked with cycloheximide
Assay type: binding
Details: crystals soaked with about 30 mM cycloheximide, 1% DMSO, 4° C., 24 hours; difference Fourier maps at 3.0 A resolution
Procedure: The present invention is based, in part, upon the three-dimensional structure of cycloheximide when associated with the large ribosomal subunit. Crystals of the H. marismortui large ribosomal subunit were soaked with cycloheximide at a concentration of about 30 mM, which is equivalent to about […], and the structure of the large ribosome subunit complexed with cycloheximide was resolved via X-ray diffraction studies.
Briefly, a small amount of a concentrated cycloheximide solution was added to a large subunit crystal suspended in stabilization solution and incubated for several hours. Following freezing and the other procedures normally used to prepare such crystals for experimental use, X-ray diffraction data were collected from the cycloheximide containing crystals. […]
The atomic co-ordinates of the large ribosomal subunit associated with cycloheximide are recorded on compact disk, Disk No. 1, under file name cycloheximide.pdb. […]
Electron density corresponding to the antibiotic was first seen in Fo (antibiotic)-Fc (native) difference Fourier maps at 3.0 A resolution. […] The atomic co-ordinates defining the structure of cycloheximide when bound to the large ribosomal subunit are recorded on compact disk, Disk No. 1 under file name cycloheximide.pdb.

SMILES: C[C@@H]1C[C@@H]([C@H](O)CC2CC(=O)NC(=O)C2)C(=O)[C@@H](C)C1 (relative stereo) [cycloheximide, [1S-[1α(S*),3α,5β]]-4-[2-(3,5-dimethyl-2-oxocyclohexyl)-2-hydroxyethyl]-2,6-piperidinedione]
- binding of cycloheximide in the large ribosomal subunit (specific vs. non-specific sites): bound to a single location in the large ribosomal subunit
